Values of other authors in patent US20190117606A1, “COMPOSITIONS COMPRISING L-THEANINE, PROANTHOCYANIDIN/S AND A CATECHIN AND USES THEREOF” (priority 2016, published 2019).

Conditions: in vivo

## CCNC(=O)CC[C@H](N)C(=O)O [L-theanine, γ-glutamylethylamide]
  Crossing of the blood-brain barrier: known to cross the blood-brain barrier
  Time to peak concentrations after consumption: about one
